Laboratory results published in patent publication US7399775B2, “β-amyloid protein production/secretion inhibitor” (Daiichi Pharmaceutical Co., Ltd., priority 2001, dated 2008).

System: not given
Experiment: not given
Conditions: not given

Row | SMILES | melting point
1 | O=S(=O)(c1ccc(Cl)cc1)C(CCc1ccc(F)cc1)c1cc(F)ccc1F (centres unmarked) [Example 309, 2-[1-(4-Chlorophenylsulfonyl)-3-(4-fluorophenyl)propyl]-1,4-difluorobenzene] | 131 to 132 °C
2 | O=S(=O)(c1ccc(Cl)cc1)C(CCc1ccc(Cl)cc1)c1cc(F)ccc1F (centres unmarked) [Example 310, 2-[3-(4-Chlorophenyl)-1-(4-chlorophenylsulfonyl)propyl]-1,4-difluorobenzene] | 124 to 126 °C
3 | O=S(=O)(c1ccc(Cl)cc1)C(CCc1ccc(Br)cc1)c1cc(F)ccc1F (centres unmarked) [Example 311, 2-[3-(4-Bromophenyl)-1-(4-chlorophenylsulfonyl)propyl]-1,4-difluorobenzene] | 122 to 124 °C
4 | O=S(=O)(c1ccc(Cl)cc1)C(CCCc1ccccc1)c1cc(F)ccc1F (centres unmarked) [Example 312, 2-[1-(4-Chlorophenylsulfonyl)-4-phenylbutyl]-1,4-difluorobenzene] | 107 to 108 °C
5 | O=S(=O)(c1ccc(Cl)cc1)C(CCCCc1ccccc1)c1cc(F)ccc1F (centres unmarked) [Example 313, 2-[1-(4-Chlorophenylsulfonyl)-5-phenylpentyl]-1,4-difluorobenzene] | 88 to 90 °C
6 | O=S(=O)(c1ccc(Cl)cc1)C(Cc1ccc(F)cc1)c1cc(F)ccc1F (centres unmarked) [Example 314, 2-[1-(4-Chlorophenylsulfonyl)-2-(4-fluorophenyl)ethyl]-1,4-difluorobenzene] | 151 to 153 °C
7 | O=S(=O)(c1ccc(Cl)cc1)C(CCC1CCCC1)c1cc(F)ccc1F (centres unmarked) [Example 315, 2-[1-(4-Chlorophenylsulfonyl)-3-cyclopentylpropyl]-1,4-difluorobenzene] | 93 to 94 °C
8 | O=S(=O)(c1ccc(Cl)cc1)C(CCC1CCCCC1)c1cc(F)ccc1F (centres unmarked) [Example 316, 2-[1-(4-Chlorophenylsulfonyl)-3-cyclohexylpropyl]-1,4-difluorobenzene] | 82 to 83 °C
9 | O=S(=O)(c1ccc(Cl)cc1)C(CCCC1CCCCC1)c1cc(F)ccc1F (centres unmarked) [Example 317, 2-[1-(4-Chlorophenylsulfonyl)-4-cyclohexylbutyl]-1,4-difluorobenzene] | 47 to 49 °C
10 | O=S(=O)(c1ccc(Cl)cc1)C(CCc1ccccn1)c1cc(F)ccc1F (centres unmarked) [Example 318, 2-[3-(4-chlorophenylsulfonyl)-3-(2,5-difluorophenyl)propyl]pyridine] | 129 to 131 °C
11 | Cc1ncsc1CCC(c1cc(F)ccc1F)S(=O)(=O)c1ccc(Cl)cc1 (centres unmarked) [Example 319, 5-[3-(4-Chlorophenylsulfonyl)-3-(2,5-difluorophenyl)propyl]-4-methyl-1,3-thiazole] | 183 to 184 °C
12 | O=S(=O)(c1ccc(Cl)cc1)C(CCN1CCCCC1)c1cc(F)ccc1F (centres unmarked) [Example 320, 1-[3-(4-Chlorophenylsulfonyl)-3-(2,5-difluorophenyl)propyl]piperidine] | 106 to 107 °C
13 | CC1(C)COC(CCC(c2cc(F)ccc2F)S(=O)(=O)c2ccc(Cl)cc2)OC1 (centres unmarked) [Example 321, 2-[3-(4-Chlorophenylsulfonyl)-3-(2,5-difluorophenyl)propyl]-5,5-dimethyl-1,3-dioxane] | 69 to 71 °C
14 | CCCCCC(c1cc(F)ccc1F)S(=O)(=O)c1ccc(Cl)cc1 (centres unmarked) [Example 322, 2-[1-(4-Chlorophenylsulfonyl)hexyl]-1,4-difluorobenzene] | 68 to 69 °C
15 | CCCCCCC(c1cc(F)ccc1F)S(=O)(=O)c1ccc(Cl)cc1 (centres unmarked) [Example 323, 2-[1-(4-Chlorophenylsulfonyl)heptyl]-1,4-difluorobenzene] | 77 to 78 °C
16 | CCCCCCCC(c1cc(F)ccc1F)S(=O)(=O)c1ccc(Cl)cc1 (centres unmarked) [Example 324, 2-[1-(4-chlorophenylsulfonyl)octyl]-1,4-difluorobenzene] | 47 to 48 °C
17 | CC(C)CCCC(c1cc(F)ccc1F)S(=O)(=O)c1ccc(Cl)cc1 (centres unmarked) [Example 325, 2-[1-(4-Chlorophenylsulfonyl)-5-methylhexyl]-1,4-difluorobenzene] | 79 to 80 °C
18 | CCC(C)CCC(c1cc(F)ccc1F)S(=O)(=O)c1ccc(Cl)cc1 (centres unmarked) [Example 326, 2-[1-(4-Chlorophenylsulfonyl)-4-methylhexyl]-1,4-difluorobenzene] | 56 to 58 °C
19 | O=S(=O)(Cc1ccc(C(c2cc(F)ccc2F)S(=O)(=O)c2ccc(Cl)cc2)nc1)c1ccc(Cl)cc1 (centres unmarked) [Example 328, 2-[(4-Chlorophenylsulfonyl)-(2,5-difluorophenyl)methyl]-5-[(4-chlorophenylsulfonyl)methyl]pyridine] | 186 to 187 °C
20 | Fc1ccc(F)c(C(Sc2ccc(Cl)cc2)c2ccc(C3OCCO3)cn2)c1 (centres unmarked) [Example 329, 2-[(4-Chlorophenylthio)-(2,5-difluorophenyl)methyl]-5-(1,3-dioxolan-2-yl)pyridine] | 70 to 73 °C
21 | COC(=O)/C=C/c1ccc(C(c2cc(F)ccc2F)S(=O)(=O)c2ccc(Cl)cc2)nc1 (centres unmarked) [Example 332, Methyl 3-[6-[(4-chlorophenylsulfonyl)-(2,5-difluorophenyl)methyl]pyridin-3-yl]acrylate] | 145 to 146 °C

Other lines, results leading:

Row | melting point | SMILES
22 | 121 to 123 °C | COC(=O)CCc1ccc(C(c2cc(F)ccc2F)S(=O)(=O)c2ccc(Cl)cc2)nc1 (centres unmarked) [Example 333, Methyl 3-[6-[(4-chlorophenylsulfonyl)-(2,5-difluorophenyl)methyl]pyridin-3-yl]propionate]
23 | 113 to 114 °C | O=S(=O)(c1ccc(Cl)cc1)C(c1ccc(CN2CCCCC2)cn1)c1cc(F)ccc1F (centres unmarked) [Example 336, 2-[(4-Chlorophenylsulfonyl)-(2,5-difluorophenyl)methyl]-5-(piperidin-1-ylmethyl)pyridine]
24 | 120 to 121 °C | O=S(=O)(c1ccc(Cl)cc1)C(c1ccc(CN2CCOCC2)cn1)c1cc(F)ccc1F (centres unmarked) [Example 337, 4-[[6-[(4-Chlorophenylsulfonyl)-(2,5-difluorophenyl)methyl]pyridin-3-yl]methyl]morpholine]
25 | > 230 °C | O=C(O)c1ccc(C(c2cc(F)ccc2F)S(=O)(=O)c2ccc(Cl)cc2)nc1 (centres unmarked) [Example 338, [6-[(4-Chlorophenylsulfonyl)-(2,5-difluorophenyl)methyl]pyridin-3-yl]carboxylic Acid]
26 | 183 to 184 °C | O=S(=O)(c1ccc(Cl)cc1)C(c1ccc[n+]([O-])c1)c1cc(F)ccc1F (centres unmarked) [Example 339, 3-[(4-Chlorophenylsulfonyl)-(2,5-difluorophenyl)methyl]pyridin-N-oxide]
27 | 211 to 212 °C | O=S(=O)(c1ccc(Cl)cc1)C(c1cc[n+]([O-])cc1)c1cc(F)ccc1F (centres unmarked) [Example 340, 4-[(4-Chlorophenylsulfonyl)-(2,5-difluorophenyl)methyl]pyridin-N-oxide]
28 | 70 to 72 °C | Fc1ccc(F)c(C(Sc2ccc(Cl)cc2)c2ccncc2Cl)c1 (centres unmarked) [Example 341, 3-Chloro-4-[(4-chlorophenylthio)-(2,5-difluorophenyl)methyl]pyridine]
29 | 128 to 129 °C | Fc1ccc(F)c(C(Sc2ccc(Cl)cc2)c2cc(Cl)ncc2Cl)c1 (centres unmarked) [Example 342, 2,5-Dichloro-4-[(4-chlorophenylthio)-(2,5-difluorophenyl)methyl]pyridine]
30 | 177 to 178 °C | CN(C)S(=O)(=O)NCc1ccc(C(c2cc(F)ccc2F)S(=O)(=O)c2ccc(Cl)cc2)nc1 (centres unmarked) [Example 356, N-[[6-[(4-Chlorophenylsulfonyl)(2,5-difluorophenyl)methyl]pyridin-3-yl]methyl]-N′,N′-dimethylsulfamide]
31 | 193 to 194 °C | CCOC(=O)C(=O)NCc1ccc(C(c2cc(F)ccc2F)S(=O)(=O)c2ccc(Cl)cc2)nc1 (centres unmarked) [Example 357, Ethyl 2-[[6-[(4-chlorophenylsulfonyl)(2,5-difluorophenyl)methyl]pyridin-3-yl]methylamino]-2-oxoacetate]
32 | 217 to 218 °C | Cc1ccc(S(=O)(=O)NCC(=O)NCc2ccc(C(c3cc(F)ccc3F)S(=O)(=O)c3ccc(Cl)cc3)nc2)cc1 (centres unmarked) [Example 358, N-[[6-[(4-Chlorophenylsulfonyl)(2,5-difluorophenyl)methyl]pyridin-3-yl]methyl]-2-(4-methylphenylsulfonylamino)acetamide]
33 | 177 to 179 °C | CN(C)CC(=O)NCc1ccc(C(c2cc(F)ccc2F)S(=O)(=O)c2ccc(Cl)cc2)nc1 (centres unmarked) [Example 359, N-[[6-[(4-Chlorophenylsulfonyl)(2,5-difluorophenyl)methyl]pyridin-3-yl]methyl]-2-dimethylaminoacetamide]

System: β-amyloid protein (Aβ) production/secretion in E35 cells (H4 cells transfected with APP751)
Experiment: Cell-based assay for inhibition of production or secretion of β-amyloid protein (sandwich ELISA of Aβ in culture medium)
Parameters: species or system human
Conditions: Homo sapiens, 24 h, 24 h with compound, Aβ in medium by sandwich ELISA, read-out: Activity (EC50 class, inhibition of Aβ secreted in culture medium)
Protocol: Cell-Based Assay for Screening of a Compound Which Inhibits Production or Secretion of β-Amyloid Protein
E35 cells which were established by transfecting APP751 gene which is a wild type human β-amyloid protein precursor into human glioma cells (H4 cells), were used to analyze inhibitory activity of a compound against β-amyloid production. The amount of β protein (Aβ) secreted in a culture medium was measured by the sandwich enzyme-linked imunosorbent assay.
E35 cells were seeded in Dulbecco's Modified Eagle's Medium containing 10% inactivated fetal bovine serum on 96-well plates and cultured in humidified air and 5% CO2 at 37° C. in a CO2 incubator. Twenty-four hours after seeding of the cells, a test compound dissolved in DMSO was added to the medium. The DMSO solution of the compound was prepared so as to give the final concentration of DMSO in the medium 0.05%. The cells were cultured for additional twenty-four hours, and then the cultured medium was collected. The medium collected was applied to a 96-well ELISA plate on which a monoclonal antibody 25-1, which recognized Aβ25-35, was immobilized, followed by the incubation at 4° C. for 16 to 20 hours. After washing with a phosphate buffer (pH 7.4), a biotinylated monoclonal antibody MA32-40, which recognizes Aβ1-8, was added to the plate, and the plate was incubated at 4° C. for 2 hours. Then alkaline phosphatase-conjugated streptavidin was added to the plate. Alkaline phosphatase activity was measured by a […] assay using BlouPhos (manufactured by KPL) as a substrate. An amount of Aβ in the medium was calculated using a calibration curve separately created. EC50 of the test compound was presented as the concentration that gives 50% inhibitory activity compared to the control cells which were not treated with the compound.

Row | SMILES | EC50
34 | CCCCC(c1cc(F)ccc1F)[S+]([O-])c1ccc(Cl)cc1 (single isomer, unassigned) [Example 2 (Isomer 2-B), 2-[1-[(4-Chlorophenyl)sulfinyl]pentyl]-1,4-difluorobenzene] | 0.5 to 5 µM
35 | CSCCCC(C)C(c1cc(F)ccc1F)S(=O)(=O)c1ccc(Cl)cc1 (single isomer, unassigned) [Example 43 (Isomer 43-A), 2-[1-[(4-Chlorophenyl)sulfonyl]-2-methyl-5-(methylthio)pentyl]-1,4-difluorobenzene] | 0.05 to 0.5 µM
